According to patent US12371454B2, “Cyclic peptide compound having Kras inhibitory action” (priority 2019, dated 2025):
Starred links: 1 amine or outer side, 2 acyl side, 3 side chain; linkers in the order of their positions; H or OH if unused. Positions of bridges follow the written chain, without caps; N, C: chain ends. Non-standard residues stand in square brackets, D forms with d. Residues, ends and D or L forms follow the SMILES beside them. *: point of attachment. hPhe(3-Cl-4-CF3) = N[C@@H](CCc1ccc(C(F)(F)F)c(Cl)c1)C(=O)O; hPhe(3-F,4-CF3) = N[C@@H](CCc1ccc(C(F)(F)F)c(F)c1)C(=O)O; NMeNle(6-CHF2) = CN[C@@H](CCCCC(F)F)C(=O)O; NMedβ3hAla = C[C@H](CC(=O)[*:2])N(C)[*:1]; NMeY = CN[C@@H](Cc1ccc(O)cc1)C(=O)O; NMeCha = CN[C@@H](CC1CCCCC1)C(=O)O; NMeGly(cPr) = CN[C@H](C(=O)O)C1CC1; NMeAhp(2) = CCCCC[C@H](NC)C(=O)O; NMeChg = CN[C@H](C(=O)O)C1CCCCC1; NMeD = CN[C@@H](CC(=O)O)C(=O)O; NMeL = CN[C@@H](CC(C)C)C(=O)O; NMeV = CN[C@H](C(=O)O)C(C)C; Piperidide = C1CCN(*)CC1; Pyrrolidide = C1CCN(*)C1; Ac5c = NC1(C(=O)O)CCCC1; CF3 = FC(F)(F)*; Sar = CNCC(=O)O

Assays:
[1] = biological target: T1, Kras and SOS1 (biotin-tagged human Kras loaded with GDP, His-tagged human SOS1) (Homo sapiens, UniProt P01116, G12D); experiment: Protein-protein interaction inhibition between Kras and SOS1 (KrasGl2D-SOS PPI) using AlphaScreen; type: binding; settings: AlphaScreen; biotin-tagged human Kras loaded with GDP, His-tagged human SOS1; read-out: KRAS G12D-SOS PPI IC50
T1 construct: made in house; host or cells: E. coli (stated for Kras only)
T1 sequence (P01116 1-188 isoform P01116-2 G12D): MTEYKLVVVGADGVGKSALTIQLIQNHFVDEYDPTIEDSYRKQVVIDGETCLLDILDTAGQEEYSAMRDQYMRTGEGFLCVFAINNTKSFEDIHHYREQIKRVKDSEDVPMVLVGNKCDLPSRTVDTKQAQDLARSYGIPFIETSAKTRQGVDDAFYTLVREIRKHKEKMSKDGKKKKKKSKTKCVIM
How it was run: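 AlphaScreen format: Ni donor beads capture His-SOS1, streptavidin acceptor beads capture biotinylated Kras (E. coli-expressed, GDP-loaded post-purification). Excite 680 nm, read 520-620 nm.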

[2] = system: Human pancreatic cancer cell line AsPC-1; experiment: Measurement of AsPC-1 cell growth inhibition (AsPC-1 CGI); type: cell-based; settings: 96 h
How it was run: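 AsPC-1 cells in 15% FBS RPMI-1640 were exposed to test compound for 96 hours at 37° C, with CellTiter-Glo as endpoint.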

Row | Compound | IC50 [1] [nM] | IC50 [2] [nM]
1 | CCCCC[C@H]1C(=O)N(C)CC(=O)N[C@@H](CCc2ccc(C(F)(F)F)c(Cl)c2)C(=O)N2CCC[C@H]2C(=O)NC2(CCCC2)C(=O)N(C)[C@@H](C2CCCCC2)C(=O)N(C)[C@H](C(=O)N2CCCCC2)CC(=O)N(C)[C@@H](CC(C)C)C(=O)N[C@@H]([C@@H](C)CC)C(=O)N(C)CC(=O)N(C)CC(=O)N1C [Compound 1846] ([NMeL]I[Sar][Sar][NMeAhp(2)][Sar][hPhe(3-Cl-4-CF3)]P[Ac5c][NMeChg][NMeD]-Piperidide; lactam N-11) | 1.1 | 100 to 500
2 | CC[C@H](C)[C@@H]1NC(=O)[C@H](C(C)C)N(C)C(=O)C[C@@H](C(=O)N2CCCCC2)N(C)C(=O)[C@H](C2CCCCC2)N(C)C(=O)C2(CCCC2)NC(=O)[C@@H]2CCCN2C(=O)[C@H](CCc2ccc(C(F)(F)F)c(Cl)c2)NC(=O)CN(C)C(=O)[C@H](CC2CCCCC2)N(C)C(=O)CN(C)C(=O)CN(C)C1=O [Compound 1807] ([NMeV]I[Sar][Sar][NMeCha][Sar][hPhe(3-Cl-4-CF3)]P[Ac5c][NMeChg][NMeD]-Piperidide; lactam N-11) | 0.89 | 50 to 100
3 | CC[C@H](C)[C@@H]1NC(=O)[C@H](CC(C)C)N(C)C(=O)C[C@@H](C(=O)N2CCCCC2)N(C)C(=O)[C@H](C2CCCCC2)N(C)C(=O)C2(CCCC2)NC(=O)[C@@H]2CCCN2C(=O)[C@H](CCc2ccc(C(F)(F)F)c(Cl)c2)NC(=O)CN(C)C(=O)[C@H](CCCCC(F)F)N(C)C(=O)CN(C)C(=O)CN(C)C1=O [Compound 631] ([NMeL]I[Sar][Sar][NMeNle(6-CHF2)][Sar][hPhe(3-Cl-4-CF3)]P[Ac5c][NMeChg][NMeD]-Piperidide; lactam N-11) | 1 | 100 to 500
4 | CC[C@H](C)[C@@H]1NC(=O)[C@H](CC(C)C)N(C)C(=O)C[C@@H](C(=O)N2CCCCC2)N(C)C(=O)[C@H](C(C)C)N(C)C(=O)C2(CCCC2)NC(=O)[C@@H]2CCCN2C(=O)[C@H](CCc2ccc(C(F)(F)F)c(F)c2)NC(=O)CN(C)C(=O)[C@H](CC2CCCCC2)N(C)C(=O)CN(C)C(=O)CN(C)C1=O [Compound 1454] ([NMeL]I[Sar][Sar][NMeCha][Sar][hPhe(3-F,4-CF3)]P[Ac5c][NMeV][NMeD]-Piperidide; lactam N-11) | 11 | 100 to 500
5 | CC[C@H](C)[C@@H]1NC(=O)[C@H](C2CC2)N(C)C(=O)C[C@@H](C(=O)N2CCCCC2)N(C)C(=O)[C@H](C2CCCCC2)N(C)C(=O)C2(CCCC2)NC(=O)[C@@H]2CCCN2C(=O)[C@H](CCc2ccc(C(F)(F)F)c(Cl)c2)NC(=O)CN(C)C(=O)[C@H](CC2CCCCC2)N(C)C(=O)CN(C)C(=O)CN(C)C1=O [Compound 1796] ([NMeGly(cPr)]I[Sar][Sar][NMeCha][Sar][hPhe(3-Cl-4-CF3)]P[Ac5c][NMeChg][NMeD]-Piperidide; lactam N-11) | 0.76 | 100 to 500
6 | CC[C@H](C)[C@@H]1NC(=O)[C@H](CC(C)C)N(C)C(=O)C[C@@H](C)N(C)C(=O)[C@H](C(C)C)N(C)C(=O)C2(CCCC2)NC(=O)[C@@H]2CCCN2C(=O)[C@H](CCc2ccc(C(F)(F)F)c(Cl)c2)NC(=O)CN(C)C(=O)[C@H](Cc2ccc(OC(F)(F)F)cc2)N(C)C(=O)CN(C)C(=O)CN(C)C1=O [Compound 1563] (cyclo([Ac5c][NMeV][NMedβ3hAla][NMeL]I[Sar][Sar][NMeY](CF3)[Sar][hPhe(3-Cl-4-CF3)]P)) | 6.2 | 50 to 100
7 | CC[C@H](C)[C@@H]1NC(=O)[C@H](CC(C)C)N(C)C(=O)C[C@@H](C)N(C)C(=O)[C@H](C(C)C)N(C)C(=O)C2(CCCC2)NC(=O)[C@@H]2CCCN2C(=O)[C@H](CCc2ccc(C(F)(F)F)c(Cl)c2)NC(=O)CN(C)C(=O)[C@H](COc2ccccc2Cl)N(C)C(=O)CN(C)C(=O)CN(C)C1=O [Compound 1589] | 39 | 100 to 500
8 | CC[C@H](C)[C@@H]1NC(=O)[C@H](CC(C)C)N(C)C(=O)C[C@@H](C(=O)N2CCCC2)N(C)C(=O)[C@H](C2CCCCC2)N(C)C(=O)C2(CCCC2)NC(=O)[C@@H]2CCCN2C(=O)[C@H](CCc2ccc(C(F)(F)F)c(F)c2)NC(=O)CN(C)C(=O)[C@H](CC2CCCCC2)N(C)C(=O)CN(C)C(=O)CN(C)C1=O [Compound 1870] ([NMeL]I[Sar][Sar][NMeCha][Sar][hPhe(3-F,4-CF3)]P[Ac5c][NMeChg][NMeD]-Pyrrolidide; lactam N-11) | 0.74 | 20 to 50
